These results are taken from patent US5212187A, “Pyridyl alkylamine compounds which are useful against histamine H1 and H2 receptors” (Zyma SA, priority 1991, dated 1993).

Each structure is given as a SMILES string.

In general, Kb refers to the equilibrium dissociation constant of an antagonist, usually derived from a functional assay.

For one test, the target named is T1, histamine H1 -receptors (Cavia porcellus, UniProt P31389).
T1 construct: isolated guinea pig ileum (H1); from tissue; host or cells: isolated guinea pig ileum
The experiment in a line: in vitro histamine H1-antagonism on isolated guinea pig ileum. The conditions noted are these: cumulative concentration/action curves (van Rossum), read-out: H1 -antagonism ileum -log KB (converted). The text has this: (§1) The compounds of formula I according to the invention are distinguished by a novel overall pharmacological activity that has not been described hitherto. […] Suitable for differentiating the two types of action are, for example, in vitro tests on isolated spontaneously beating guinea pig right atrium (H2) and on isolated guinea pig ileum (H1) (Black, J. W.; Duncan, W. A. M.; Durant, G. J., Ganellin, C. R.; Parsons, M. E. (1972), "Definition and Antagonism of Histamine H2 -receptors", Nature 236, 385-390). The concentration/action curves for determining the pharmacological parameters (-log KB) are recorded using a cumulative technique according to van Rossum, J. M. (1963), "Cumulative Dose-Response Curves. II. Technique for the Making of Dose-Response Curves in Isolated Organs and the Evaluation of Drug Parameters", Arch. Int. Pharmacodyn. Ther. 143, 299-307.
(§2) (determined from isolated guinea pig ileum and atrium, […]

The target of another test is T2, histamine H2 -receptors (Cavia porcellus, UniProt P47747).
T2 construct: isolated spontaneously beating guinea pig right atrium (H2); from tissue; host or cells: isolated spontaneously beating guinea pig right atrium
The experiment in a line: in vitro histamine H2-antagonism on isolated spontaneously beating guinea pig right atrium. Conditions: cumulative concentration/action curves (van Rossum), read-out: H2 -antagonism atrium -log KB (converted).
Description: as §1, §2

T1 sequence (P31389 whole entry): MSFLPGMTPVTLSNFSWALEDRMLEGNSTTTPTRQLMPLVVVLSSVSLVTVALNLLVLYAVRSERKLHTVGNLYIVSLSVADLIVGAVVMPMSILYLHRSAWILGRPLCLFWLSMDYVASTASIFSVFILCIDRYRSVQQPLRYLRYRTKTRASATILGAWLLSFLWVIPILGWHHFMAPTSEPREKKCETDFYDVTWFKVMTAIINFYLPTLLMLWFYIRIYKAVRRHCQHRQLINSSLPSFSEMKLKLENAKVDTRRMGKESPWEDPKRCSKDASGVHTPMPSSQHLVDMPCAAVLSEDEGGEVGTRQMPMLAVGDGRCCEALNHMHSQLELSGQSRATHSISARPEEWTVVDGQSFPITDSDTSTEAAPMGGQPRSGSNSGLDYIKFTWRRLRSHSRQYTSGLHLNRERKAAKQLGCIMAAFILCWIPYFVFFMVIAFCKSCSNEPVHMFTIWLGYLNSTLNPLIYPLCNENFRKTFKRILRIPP
T2 sequence (P47747 whole entry): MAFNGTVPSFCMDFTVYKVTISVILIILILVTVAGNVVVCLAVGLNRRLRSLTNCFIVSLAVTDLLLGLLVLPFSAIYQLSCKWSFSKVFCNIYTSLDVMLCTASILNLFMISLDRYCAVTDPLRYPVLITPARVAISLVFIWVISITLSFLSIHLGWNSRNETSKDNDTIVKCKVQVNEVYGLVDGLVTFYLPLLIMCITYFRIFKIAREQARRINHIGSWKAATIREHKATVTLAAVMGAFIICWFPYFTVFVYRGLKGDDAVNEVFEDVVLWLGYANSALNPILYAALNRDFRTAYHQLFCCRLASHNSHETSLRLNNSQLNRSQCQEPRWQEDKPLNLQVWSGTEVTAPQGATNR

As to `CN(CCNC(=NCCCCOc1cccc(CN2CCCCC2)c1)NC#N)CCC(c1ccc(Cl)cc1)c1ccccn1` (centres unmarked) [Example 1, N-[2-[N-[3-(4-chlorophenyl)-3-(2-pyridyl)propyl]-N-methylamino]ethyl]-N'-cyano-N"-[4-[3-(piperidinomethyl)phenoxy]butyl]guanidine], the antagonist equilibrium constant (Kb) at histamine H1 -receptors was 63.1 nM; at histamine H2 -receptors it was 2290 nM.

Consider `CN(CCCCNC(=NCCCOc1cccc(CN2CCCCC2)c1)NC#N)CCC(c1ccccc1)c1ccccn1` (centres unmarked) [Example 9, N-cyano-N'-[4-[N-[3-phenyl-3-(2-pyridyl)propyl]-N-methylamino]butyl]-N"-[3-[3-(piperidinomethyl)phenoxy]propyl]guanidine], for which the Kb on histamine H1 -receptors was 11.7 nM; on histamine H2 -receptors it was 501 nM.

As to `CN(CCCNC(=NCCCOc1cccc(CN2CCCCC2)c1)NC#N)CCC(c1ccccc1)c1ccccn1` (centres unmarked) [Example 10, N-cyano-N'-[3-[N-[3-phenyl-3-(2-pyridyl)propyl]-N-methylamino]propyl]-N"-[3-[3-(piperidinomethyl)phenoxy]propyl]guanidine], the Kb at histamine H1 -receptors was 6.46 nM; at histamine H2 -receptors, 1480 nM.

Regarding `CN(CCCCNC(=NCCSCc1csc(NC(=N)N)n1)NC#N)CCC(c1ccc(Cl)cc1)c1ccccn1` (centres unmarked) [Example 17, N-[4-[N-[3-(4-chlorophenyl)-3-(2-pyridyl)propyl]-N-methylamino]butyl]-N'-cyano-N"-[2-[[(2-guanidino-4-thiazolyl)methyl]thio]ethyl]guanidine], the figures for the Kb at histamine H1 -receptors and on histamine H2 -receptors were 5.01 nM and 166 nM, respectively.

In the case of `CN(CCCCCNC(=NCCSCc1csc(NC(=N)N)n1)NC#N)CCC(c1ccc(Cl)cc1)c1ccccn1` (centres unmarked) [Example 18, N-[5-[N-[3-(4-chlorophenyl)-3-(2-pyridyl)propyl]-N-methylamino]pentyl]-N'-cyano-N"-[2-[[(2-guanidino-4-thiazolyl)methyl]thio]ethyl]guanidine], the Kb at histamine H1 -receptors was 3.72 nM; on histamine H2 -receptors it was 126 nM.

Take `CN(CCCCCCCNC(=NCCSCc1csc(NC(=N)N)n1)NC#N)CCC(c1ccc(Cl)cc1)c1ccccn1` (centres unmarked) [Example 20, N-[7-[N-[3-(4-chlorophenyl)-3-(2-pyridyl)propyl]-N-methylamino]heptyl]-N'-cyano-N"-[2-[[(2-guanidino-4-thiazolyl)methyl]thio]ethyl]guanidine]: the Kb on histamine H1 -receptors is 4.17 nM; at histamine H2 -receptors, 30.9 nM.

Consider `CN(CCCCCCCNC(=C[N+](=O)[O-])NCCSCc1csc(NC(=N)N)n1)CCC(c1ccc(Cl)cc1)c1ccccn1` (centres unmarked) [Example 23, N-[7-[N-[3-(4-chlorophenyl)-3-(2-pyridyl)propyl]-N-methylamino]heptyl]-N'-[2-[[(2-guanidino-4-thiazolyl)methyl]thio]ethyl]-2-nitro-1,1-ethenediamine], for which the results for the Kb on histamine H1 -receptors and at histamine H2 -receptors were 5.01 nM and 12.6 nM, respectively.

Turning to `CN(CCCNC(=O)NCCCOc1cccc(CN2CCCCC2)c1)CCC(c1ccc(F)cc1)c1ccccn1` (centres unmarked) [Example 30, N-[3-[N-[3-(4-fluorophenyl)-3-(2-pyridyl)propyl]-N-methylamino]propyl]-N'-[3-[3-(piperidinomethyl)phenoxy]propyl]urea], the Kb at histamine H1 -receptors was 6.17 nM; at histamine H2 -receptors, 209 nM.

In the case of `CN(CCCCCCCCNC(=O)NCCSCc1csc(NC(=N)N)n1)CCC(c1ccc(Cl)cc1)c1ccccn1` (centres unmarked) [Example 35, N-[8-[N-[3-(4-chlorophenyl)-3-(2-pyridyl)propyl]-N-methylamino]octyl]-N'-[2-[[(2-guanidino-4-thiazolyl)methyl]thio]ethyl]urea], the Kb at histamine H1 -receptors is 13.8 nM; at histamine H2 -receptors it was 39.8 nM.

With `CN(CCCCCCCNC(=O)NCCSCc1csc(NC(=N)N)n1)CCC(c1ccc(Cl)cc1)c1ccccn1` (centres unmarked) [Example 36, N-[7-[N-[3-(4-chlorophenyl)-3-(2-pyridyl)propyl]-N-methylamino]heptyl]-N'-[2-[[(2-guanidino-4-thiazolyl)methyl]thio]ethyl]urea], the Kb on histamine H1 -receptors was 5.37 nM; on histamine H2 -receptors, 26.9 nM.

For `CN(CCCCCCNC(=O)NCCSCc1csc(NC(=N)N)n1)CCC(c1ccc(Cl)cc1)c1ccccn1` (centres unmarked) [Example 37, N-[6-[N-[3-(4-chlorophenyl)-3-(2-pyridyl)propyl]-N-methylamino]hexyl]-N'-[2-[[(2-guanidino-4-thiazolyl)methyl]thio]ethyl]urea], the Kb at histamine H1 -receptors is 7.41 nM; at histamine H2 -receptors, 123 nM.

For `CN(CCCCCCCNC(=S)NCCSCc1csc(NC(=N)N)n1)CCC(c1ccc(Cl)cc1)c1ccccn1` (centres unmarked) [Example 48, N-[7-[N-[3-(4-chlorophenyl)-3-(2-pyridyl)propyl]-N-methylamino]heptyl]-N'-[2-[[(2-guanidino-4-thiazolyl)methyl]thio]ethyl]thiourea], the Kb on histamine H1 -receptors was 20 nM; at histamine H2 -receptors, 60.3 nM.

For `Cc1[nH]cnc1CSCCNC(=O)NCCCN(C)CCC(c1ccc(Cl)cc1)c1ccccn1` (centres unmarked) [Example 50, N-[3-[N-[3-(4-chlorophenyl)-3-(2-pyridyl)propyl]-N-methylamino]propyl]-N'-[2-[[(5-methylimidazol-4-yl)methyl]thio]ethyl]urea], the Kb at histamine H1 -receptors was 7.08 nM; at histamine H2 -receptors it was 6460 nM.

With `COc1ccc(CN(CCN(C)CCCCCCNC(=NCCCOc2cccc(CN3CCCCC3)c2)NC#N)c2ccccn2)cc1` [Example 55, N-cyano-N'-[6-[N-[2-[N-(4-methoxybenzyl)-N-(2-pyridyl)amino]ethyl]-N-methylamino]hexyl]-N"-[3-[3-(piperidinomethyl)phenoxy]propyl]guanidine], the Kb on histamine H1 -receptors is 7.24 nM; at histamine H2 -receptors, 372 nM.

Consider `CN(CCCCCCNC(=NCCCOc1cccc(CN2CCCCC2)c1)NC#N)CCN(Cc1ccc(F)cc1)c1ccccn1` [Example 60, N-cyano-N'-[6-[N-[2-[N-(4-fluorobenzyl)-N-(2-pyridyl)amino]ethyl]-N-methylamino]hexyl]-N"-[3-[3-(piperidinomethyl)phenoxy]propyl]guanidine], for which the Kb on histamine H1 -receptors was 8.71 nM; at histamine H2 -receptors, 389 nM.

On to `COc1ccc(CN(CCN(C)CCCCCCNC(=O)NCCCOc2cccc(CN3CCCCC3)c2)c2ccccn2)cc1` [Example 66, N-[6-[N-[2-[N-(4-methoxybenzyl)-N-(2-pyridyl)amino]ethyl]-N-methylamino]hexyl]-N'-[3-[3-(piperidinomethyl)phenoxy]propyl]urea], for which the values for the Kb on histamine H1 -receptors and at histamine H2 -receptors were 11.2 nM and 182 nM, respectively.

Take `CN(CCCCCNC(=O)NCCCOc1cccc(CN2CCCCC2)c1)CCN(Cc1ccc(F)cc1)c1ccccn1` [Example 70, N-[5-[N-[2-[N-(4-fluorobenzyl)-N-(2-pyridyl)amino]ethyl]-N-methylamino]-pentyl]-N'-[3-[3-(piperidinomethyl)phenoxy]propyl]urea]: the Kb on histamine H1 -receptors is 9.55 nM; at histamine H2 -receptors, 135 nM.

Regarding `CN(CCCCCCCNC(=O)NCCCOc1cccc(CN2CCCCC2)c1)CCN(Cc1ccc(F)cc1)c1ccccn1` [Example 72, N-[7-[N-[2-[N-(4-fluorobenzyl)-N-(2-pyridyl)amino]ethyl]-N-methylamino]heptyl]-N'-[3-[3-(piperidinomethyl)phenoxy]propyl]urea], the Kb was 17.8 nM on histamine H1 -receptors and 44.7 nM at histamine H2 -receptors.

As for `COc1ccc(CN(CCN(C)CCCCCCNC(=C[N+](=O)[O-])NCCCOc2cccc(CN3CCCCC3)c2)c2ccccn2)cc1` [Example 75, N-[6-[N-[2-[N-(4-methoxybenzyl)-N-(2-pyridyl)amino]ethyl]-N-methylamino]hexyl]-N'-[3-[3-(piperidinomethyl)phenoxy]propyl]-2-nitro-1,1-ethenediamine], the Kb on histamine H1 -receptors is 12.3 nM; at histamine H2 -receptors it was 123 nM.
